Assay results published in patent US7491794B2, “Macrocyclic compounds as inhibitors of viral replication” (Intermune, Inc., priority 2003, dated 2009).
Where two headings read alike, the source gives them in different places.

Legend:
NS3-NS4A protease = biological target: T1, NS3-NS4A protease (Hepatitis C virus genotype 1a, UniProt P27958); assay: NS3-NS4A protease assay (NS3 inhibition assay, RETS1 substrate), Section B; assay type: biochemical
T1 construct: Recombinant E. coli or Baculovirus full-length NS3 was diluted to 3.33 μM with assay buffer; made in house; host or cells: E. coli or baculovirus (BV) system
In short: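 Full-length NS3 (E. coli or baculovirus) precomplexed with excess NS4A-2 peptide, run at 2 nM (E. coli) or 3 nM (BV) NS3; compounds pre-incubated 10 min at room temperature before RETS1 substrate. Fluorescence (ex 335/em 495 nm) read kinetically 30 min; IC50 from four-parameter fit, converted to Ki via Ki=IC50/(1+[S]/Km).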

[1] = test system: HCV sub-genomic replicon, GS4.3; assay: Quantitation by ELISA of NPTII in the HCV sub-genomic replicon, GS4.3, Section B; assay type: cell-based; conditions: Hepatitis C virus, read-out: Replicon EC50
In short: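 GS4.3 cells (HuH-7 carrying HCV 1377/NS3-3′ replicon) were treated 72 h at 37 °C with inhibitors in 3-fold dilutions, 1% DMSO, no G418. Lysate NPTII was measured by ELISA (TMB, 450 nm). Signal as % of DMSO control; EC50 from 4-parameter fit.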

T1 sequence (P27958 1027-1657): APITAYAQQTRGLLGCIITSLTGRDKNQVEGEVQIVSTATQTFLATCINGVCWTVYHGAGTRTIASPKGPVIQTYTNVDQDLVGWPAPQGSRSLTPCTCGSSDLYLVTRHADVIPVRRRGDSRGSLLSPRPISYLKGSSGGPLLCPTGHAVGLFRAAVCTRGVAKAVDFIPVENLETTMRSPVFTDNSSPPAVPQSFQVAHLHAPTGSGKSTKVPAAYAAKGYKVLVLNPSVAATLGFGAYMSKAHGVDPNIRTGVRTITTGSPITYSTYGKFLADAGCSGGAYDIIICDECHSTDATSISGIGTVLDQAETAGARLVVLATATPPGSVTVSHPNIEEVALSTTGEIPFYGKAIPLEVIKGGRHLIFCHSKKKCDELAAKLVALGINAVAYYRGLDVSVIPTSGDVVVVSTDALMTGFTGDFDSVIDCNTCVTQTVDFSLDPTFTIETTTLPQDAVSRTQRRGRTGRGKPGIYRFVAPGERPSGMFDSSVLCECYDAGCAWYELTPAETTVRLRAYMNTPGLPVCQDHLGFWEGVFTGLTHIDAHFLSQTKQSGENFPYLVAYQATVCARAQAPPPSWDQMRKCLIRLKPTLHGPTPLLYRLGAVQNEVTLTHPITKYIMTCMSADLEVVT

With `CC(C)(C)OC(=O)N[C@H]1CCCCC/C=C\[C@@H]2C[C@@]2(C(=O)NS(=O)(=O)C2CC2)NC(=O)[C@@H]2C[C@@H](OC(=O)N3Cc4ccc(Br)cc4C3)CN2C1=O` [AR00340526, (1S,4R,6S,14S,18R)-5-Bromo-1,3-dihydro-isoindole-2-carboxylic acid 14-tert-butoxycarbonylamino-4-cyclopropanesulfonylaminocarbonyl-2,15-dioxo-3,16-diaza-tricyclo[14.3.0.0^4,6]nonadec-7-en-18-yl ester] the IC50 (NS3-NS4A protease; read-out: NS3-NS4A IC50) was under 100 nM and the EC50 ([1]; GS4.3 cells, 72 h incubation) was under 100 nM.
With `CC(C)(C)OC(=O)N[C@H]1CCCCC/C=C\[C@@H]2C[C@@]2(C(=O)NS(=O)(=O)C2CC2)NC(=O)[C@@H]2C[C@@H](OC(=O)N3Cc4ccc(C(=O)O)cc4C3)CN2C1=O` [AR00365084, (1S,4R,6S,14S,18R)-1,3-Dihydro-isoindole-2,5-dicarboxylic acid 2-(14-tert-butoxycarbonylamino-4-cyclopropanesulfonylaminocarbonyl-2,15-dioxo-3,16-diaza-tricyclo[14.3.0.0^4,6]nonadec-7-en-18-yl) ester] the IC50 (NS3-NS4A protease; read-out: NS3-NS4A IC50) was under 100 nM and the EC50 ([1]; GS4.3 cells, 72 h incubation) was under 10000 nM.
`CCCCS(=O)(=O)NC(=O)[C@@]12C[C@H]1/C=C\CCCCC[C@H](NC(=O)OC(C)(C)C)C(=O)N1C[C@H](OC(=O)N3CCc4ccccc4C3)C[C@H]1C(=O)N2` [AR00261409, (1S,4R,6S,14S,18R)-3,4-Dihydro-1H-isoquinoline-2-carboxylic acid 4-(butane-1-sulfonylaminocarbonyl)-14-tert-butoxycarbonylamino-2,15-dioxo-3,16-diaza-tricyclo[14.3.0.0^4,6]nonadec-7-en-18-yl ester] gave an IC50 (NS3-NS4A protease; read-out: NS3-NS4A IC50) of under 100 nM and an EC50 ([1]; 72 h) of under 10000 nM.
Work on `CC(C)(C)OC(=O)N[C@H]1CCCCCCCC2C[C@@]2(C(=O)NS(=O)(=O)C2CC2)NC(=O)[C@@H]2C[C@@H](OC(=O)N3Cc4ccccc4C3)CN2C1=O` (stereo in doubt) [AR00333833, (1S,4R,6S,14S,18R)-1,3-Dihydro-isoindole-2-carboxylic acid 14-tert-butoxycarbonylamino-4-cyclopropanesulfonylaminocarbonyl-2,15-dioxo-3,16-diaza-tricyclo[14.3.0.0^4,6]nonadec-18-yl ester] yielded an IC50 (NS3-NS4A protease; read-out: NS3-NS4A IC50) of under 100 nM and an EC50 ([1]; GS4.3 cells, 72 h incubation) of under 100 nM.
Work on `CC(C)(C)OC(=O)N[C@H]1CCCCC/C=C\[C@@H]2C[C@@]2(C(=O)NS(=O)(=O)C2CC2)NC(=O)[C@@H]2C[C@@H](OC(=O)N3CCc4nc(Nc5ccccc5)sc4C3)CN2C1=O` [AR00311814, (1S,4R,6S,14S,18R)-2-Phenylamino-6,7-dihydro-4H-thiazolo[5,4-c]pyridine-5-carboxylic acid 14-tert-butoxycarbonylamino-4-cyclopropanesulfonylaminocarbonyl-2,15-dioxo-3,16-diaza-tricyclo[14.3.0.0^4,6]nonadec-7-en-18-yl ester] yielded an IC50 (NS3-NS4A protease; read-out: NS3-NS4A IC50) of under 100 nM and an EC50 ([1]; GS4.3 cells, 72 h incubation) of under 10000 nM.
Work on `CC(C)[C@@H](NC(=O)c1cnccn1)C(=O)N[C@H]1CCCCC/C=C\[C@@H]2C[C@@]2(C(=O)O)NC(=O)[C@@H]2C[C@@H](OC(=O)N3CCc4ccccc4C3)CN2C1=O` [AR00301338, (1S,4R,6S,14S,18R)-18-(3,4-Dihydro-1H-isoquinoline-2-carbonyloxy)-14-{3-methyl-2-[(pyrazine-2-carbonyl)-amino]-butyrylamino}-2,15-dioxo-3,16-diaza-tricyclo[14.3.0.0^4,6]nonadec-7-ene-4-carboxylic acid] yielded an IC50 (NS3-NS4A protease) of under 100 nM and an EC50 ([1]; 72 h) of under 10000 nM.
`O=C(N[C@H]1CCCCC/C=C\[C@@H]2C[C@@]2(C(=O)NS(=O)(=O)C2CC2)NC(=O)[C@@H]2C[C@@H](OC(=O)N3Cc4ccc(Cl)cc4C3)CN2C1=O)OC1CCCC1` [AR00334218, (1S,4R,6S,14S,18R)-5-Chloro-1,3-dihydro-isoindole-2-carboxylic acid 14-cyclopentyloxycarbonylamino-4-cyclopropanesulfonylaminocarbonyl-2,15-dioxo-3,16-diaza-tricyclo[14.3.0.0^4,6]nonadec-7-en-18-yl ester] was tested, and the IC50 (NS3-NS4A protease; read-out: NS3-NS4A IC50) was under 100 nM and the EC50 ([1]; GS4.3 cells, 72 h incubation) was under 100 nM.
In the case of `O=C(N[C@H]1CCCCC/C=C\[C@@H]2C[C@@]2(C(=O)O)NC(=O)[C@@H]2C[C@@H](OC(=O)N3CCc4ccccc4C3)CN2C1=O)O[C@H]1CCOC1` [AR00304126, (1S,4R,6S,14S,18R)-18-(3,4-Dihydro-1H-isoquinoline-2-carbonyloxy)-2,15-dioxo-14-(tetrahydro-furan-3S-yloxycarbonylamino)-3,16-diaza-tricyclo[14.3.0.0^4,6]nonadec-7-ene-4-carboxylic acid], the IC50 (NS3-NS4A protease; read-out: NS3-NS4A IC50) is reported as under 1000 nM and the EC50 ([1]; GS4.3 cells, 72 h incubation) is reported as under 10000 nM.
In the case of `CC(C)(C)CC(=O)N[C@H]1CCCCC/C=C\[C@@H]2C[C@@]2(C(=O)NS(=O)(=O)C2CC2)NC(=O)[C@@H]2C[C@@H](OC(=O)N3Cc4ccc(Cl)cc4C3)CN2C1=O` [AR00334225, (1S,4R,6S,14S,18R)-5-Chloro-1,3-dihydro-isoindole-2-carboxylic acid 4-cyclopropanesulfonylaminocarbonyl-14-(3,3-dimethyl-butyrylamino)-2,15-dioxo-3,16-diaza-tricyclo[14.3.0.0^4,6]nonadec-7-en-18-yl ester], the IC50 (NS3-NS4A protease; read-out: NS3-NS4A IC50) is reported as under 100 nM and the EC50 ([1]; GS4.3 cells, 72 h incubation) is reported as under 1000 nM.
`CC(C)(C)OC(=O)N[C@H]1CCCCC/C=C\[C@@H]2C[C@@]2(C(=O)NS(=O)(=O)C2CC2)NC(=O)[C@@H]2C[C@@H](OC(=O)N3Cc4ccc(OCCn5cccn5)cc4C3)CN2C1=O` [AR00364924, (1S,4R,6S,14S,18R)-5-(2-Pyrazol-1-yl-ethoxy)-1,3-dihydro-isoindole-2-carboxylic acid 14-tert-butoxycarbonylamino-4-cyclopropanesulfonylaminocarbonyl-2,15-dioxo-3,16-diaza-tricyclo[14.3.0.0^4,6]nonadec-7-en-18-yl ester] was tested, and the IC50 (NS3-NS4A protease; read-out: NS3-NS4A IC50) was under 100 nM and the EC50 ([1]; GS4.3 cells, 72 h incubation) was under 100 nM.
`CC(C)(C)OC(=O)N[C@H]1CCCCC/C=C\[C@@H]2C[C@@]2(C(=O)NS(C)(=O)=O)NC(=O)[C@@H]2C[C@@H](OC(=O)N3Cc4ccccc4C3)CN2C1=O` [AR00333803, (1S,4R,6S,14S,18R)-1,3-Dihydro-isoindole-2-carboxylic acid 14-tert-butoxycarbonylamino-4-methanesulfonylaminocarbonyl-2,15-dioxo-3,16-diaza-tricyclo[14.3.0.0^4,6]nonadec-7-en-18-yl ester] gave an IC50 (NS3-NS4A protease; read-out: NS3-NS4A IC50) of under 100 nM and an EC50 ([1]; GS4.3 cells, 72 h incubation) of under 1000 nM.
With `O=C(N[C@H]1CCCCC/C=C\[C@@H]2C[C@@]2(C(=O)NS(=O)(=O)C2CC2)NC(=O)[C@@H]2C[C@@H](OC(=O)N3CCc4ccccc4C3)CN2C1=O)OC1CCOCC1` [AR00320082, (1S,4R,6S,14S,18R)-3,4-Dihydro-1H-isoquinoline-2-carboxylic acid 4-cyclopropanesulfonylaminocarbonyl-2,15-dioxo-14-(tetrahydro-pyran-4-yloxycarbonylamino)-3,16-diaza-tricyclo[14.3.0.0^4,6]nonadec-7-en-18-yl ester] the IC50 (NS3-NS4A protease; read-out: NS3-NS4A IC50) was under 100 nM and the EC50 ([1]; GS4.3 cells, 72 h incubation) was under 100 nM.
In the case of `CC1CN(C(=O)O[C@@H]2C[C@H]3C(=O)N[C@]4(C(=O)NS(=O)(=O)C5CC5)C[C@H]4/C=C\CCCCC[C@H](NC(=O)NC(C)(C)C)C(=O)N3C2)Cc2ccccc21` (stereo partly drawn) [AR00314656, (1S,4R,6S,14S,18R)-4-Methyl-3,4-dihydro-1H-isoquinoline-2-carboxylic acid 14-(3-tert-butyl-ureido)-4-cyclopropanesulfonylaminocarbonyl-2,15-dioxo-3,16-diaza-tricyclo[14.3.0.0^4,6]nonadec-7-en-18-yl ester], the IC50 (NS3-NS4A protease; read-out: NS3-NS4A IC50) is reported as under 100 nM and the EC50 ([1]; GS4.3 cells, 72 h incubation) is reported as under 100 nM.
`CC(C)(C)NC(=O)N[C@H]1CCCCC/C=C\[C@@H]2C[C@@]2(C(=O)NS(=O)(=O)C2CC2)NC(=O)[C@@H]2C[C@@H](OC(=O)N3Cc4ccc(Cl)cc4C3)CN2C1=O` [AR00320446, (1S,4R,6S,14S,18R)-5-Chloro-1,3-dihydro-isoindole-2-carboxylic acid 14-(3-tert-butyl-ureido)-4-cyclopropanesulfonylaminocarbonyl-2,15-dioxo-3,16-diaza-tricyclo[14.3.0.0^4,6]nonadec-7-en-18-yl ester] was tested, and the IC50 (NS3-NS4A protease; read-out: NS3-NS4A IC50) was under 100 nM and the EC50 ([1]; GS4.3 cells, 72 h incubation) was under 100 nM.
`CC(C)(C)OC(=O)N[C@H]1CCCCC/C=C\[C@@H]2C[C@@]2(C(=O)NS(=O)(=O)c2ccc(Cl)cc2)NC(=O)[C@@H]2C[C@@H](OC(=O)N3Cc4ccccc4C3)CN2C1=O` [AR00334250, (1S,4R,6S,14S,18R)-1,3-Dihydro-isoindole-2-carboxylic acid 14-tert-butoxycarbonylamino-4-(4-chloro-benzenesulfonylaminocarbonyl)-2,15-dioxo-3,16-diaza-tricyclo[14.3.0.0^4,6]nonadec-7-en-18-yl ester] was tested, and the IC50 (NS3-NS4A protease; read-out: NS3-NS4A IC50) was under 100 nM and the EC50 ([1]; GS4.3 cells, 72 h incubation) was under 100 nM.
Compound `CC(C)(C)OC(=O)N[C@H]1CCCCC/C=C\[C@@H]2C[C@@]2(C(=O)O)NC(=O)[C@@H]2C[C@@H](OC(=O)N3CCc4c(N)cccc4C3)CN2C1=O` [AR00301745, (1S,4R,6S,14S,18R)-18-(5-Amino-3,4-dihydro-1H-isoquinoline-2-carbonyloxy)-14-tert-butoxycarbonylamino-2,15-dioxo-3,16-diaza-tricyclo[14.3.0.0^4,6]nonadec-7-ene-4-carboxylic acid] has an IC50 (NS3-NS4A protease; read-out: NS3-NS4A IC50) of under 1000 nM and an EC50 ([1]; GS4.3 cells, 72 h incubation) of under 10000 nM.
Work on `CC(C)(C)OC(=O)N[C@H]1CCCCC/C=C\[C@@H]2C[C@@]2(C(=O)NS(=O)(=O)c2cccs2)NC(=O)[C@@H]2C[C@@H](OC(=O)N3Cc4ccccc4C3)CN2C1=O` [AR00365427, (1S,4R,6S,14S,18R)-1,3-Dihydro-isoindole-2-carboxylic acid 14-tert-butoxycarbonylamino-2,15-dioxo-4-(thiophene-2-sulfonylaminocarbonyl)-3,16-diaza-tricyclo[14.3.0.0^4,6]nonadec-7-en-18-yl ester] yielded an IC50 (NS3-NS4A protease; read-out: NS3-NS4A IC50) of under 100 nM and an EC50 ([1]; GS4.3 cells, 72 h incubation) of under 100 nM.
